Laboratory results reported in US20070066672A1, “Benzimidazole derivatives and use thereof as peptide deformylase inhibitors” (Arpida A/S, priority 2003, published 2007).

Key:
[1] = target: T1, Peptide Deformylase (PDF) (Escherichia coli, UniProt P0A6K3); assay: Bacterial peptide deformylase (PDF) assay, colorimetric cell free, enzyme from E. coli; format: biochemical
T1 construct: made in house
Text: (§1) To find inhibitors of Peptide Deformylase (PDF), a colorimetric cell free assay for measuring the enzymatic activity of PDF has been adapted to the microtiter plate format (96 wells). The assay comprises three components, purified PDF, f-Met-Ala as substrate and TNBS as the detecting agent of primary amino groups. The resulting TNP_NH-Met-Ala sulfite complex can be detected at 420 nm. PDF enzymes, containing Fe^2+ as the native metal, are purified and are stabilized by the addition of tris(2-carboxyethyl)phosphine (TCEP).
(§2) The IC50 value of a compound of the invention as a bacterial PDF inhibitor was determined using the following assay.
(§3) Assay buffer 0.1 M MOPS pH was adjusted to 7.2 with NaOH, containing 0.25 M NaCl, 100 μg/mL catalase and 1 mg/mL BSA.
(§4) E. coli enzyme (2.5 mg/ml) 10 μl+290 μl Assay buffer, 1 μl per ml enzyme mix. S. aureus (15 mg/ml) 10 μl+990 μl Assay buffer, 0.3 μl per ml enzyme mix.
(§5) Substrate mix: 10 mM f-Met-Ala was made up from 200 mM f-Met-Ala in methanol with assay buffer.
(§6) TNBS solution: Freshly dilute 1 M TNBS stock solution diluted 1:10 with water.
(§7) Buffer C: 0.5 M borate buffer adjusted to pH 9.5 with NaOH.
(§8) Buffer D: 0.2 ml of freshly prepared 0.5 M Na2SO3 was mixed with 9.8 mL of 0.5M NaH2PO4.
(§9) Inhibitor solution: 2 mM Sodium 4-(hydroxymercurio)benzoate in assay buffer.
(§10) Compound mix: Compound of formula I dissolved in DMSO in a 10 mg/mL stock solution. Further dilutions were made in DMSO in the concentration range between 0.05 to 100 mM.
(§11) The assay was performed in a 96 Microtiter plate containing test compound. To each well containing test compound mix was added 75 microliter of enzyme mix from E. coli followed by the addition of 25 microliter of substrate mix. The resulting mix was incubated for 30 minutes at room temperature with shaking. TNBS solution (50 microliter/well) was added and the resulting mixture was incubated for 15 minutes under shaking. Buffer C was then added (20 microliter/well). After incubating at room temperature for 15 minutes under shaking, buffer D was added (50 microliter/well). The optical […] was then measured at 420 nm, thereby determining the IC50 value.

[2] = target: T2, Peptide Deformylase (PDF) (Staphylococcus aureus, UniProt P68826); assay: Bacterial peptide deformylase (PDF) assay, colorimetric cell free, enzyme from S. aureus; format: biochemical; conditions: f-Met-Ala substrate, TNBS detection at 420 nm
T2 construct: made in house
T2 sequence (P68826 1-183): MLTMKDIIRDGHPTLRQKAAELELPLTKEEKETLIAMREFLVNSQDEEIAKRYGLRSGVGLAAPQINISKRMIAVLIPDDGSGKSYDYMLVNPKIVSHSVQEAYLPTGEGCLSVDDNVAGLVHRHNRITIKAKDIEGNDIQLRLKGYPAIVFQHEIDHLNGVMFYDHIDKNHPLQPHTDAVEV
Text: as §1, §2, §3, §4, §5, §6, §7, §8, §9, §10, §11
The assay was repeated using enzyme mix from S. aureus.

T1 sequence (P0A6K3 whole entry): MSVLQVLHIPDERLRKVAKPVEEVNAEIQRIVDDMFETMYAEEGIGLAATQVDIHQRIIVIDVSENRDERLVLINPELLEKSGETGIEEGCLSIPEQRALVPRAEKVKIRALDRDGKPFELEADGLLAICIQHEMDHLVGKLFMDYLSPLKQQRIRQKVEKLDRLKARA

SMILES	IC50 [1] [µM]	IC50 [2] [µM]
COC(=O)CNC(=O)c1ccc2c(c1)nc(C(Cc1ccccc1)NC(=O)CCS)n2CCO (stereo not drawn) [Example 22, ({1-(2-Hydroxy-ethyl)-2-[1-(3-mercapto-propionylamino)-2-phenyl-ethyl]-1H-benzoimidazole-5-carbonyl}-amino)-acetic acid methyl ester]	> 200	> 200
COC(=O)CNC(=O)c1ccc2c(c1)nc(C(CC(C)C)NC(=O)CCC(=O)O)n2C1CC1 (stereo not drawn) [Example 13, N-{1-[1-Cyclopropyl-5-(methoxycarbonylmethyl-carbamoyl)-1H-benzoimidazol-2-yl]-3-methyl-butyl}-succinamic acid]	4	0.119
COC(=O)CNC(=O)c1ccc2c(c1)nc(C(CC(C)C)NC(=O)CCC(=O)O)n2CCO (stereo not drawn) [Example 28, N-{1-[1-(2-Hydroxy-ethyl)-5-(methoxycarbonylmethyl-carbamoyl)-1H-benzoimidazol-2-yl]-3-methylbutyl}-succinamic acid]	> 200	34.4
COC(=O)CNC(=O)c1ccc2c(c1)nc(C(CCc1ccccc1)NC(=O)CCC(=O)NO)n2C1CC1 (stereo not drawn) [Example 41, ({1-Cyclopropyl-2-[1-(3-hydroxycarbamoyl-propionylamino)-3-phenyl-propyl]-1H-benzoimidazole-5-carbonyl}-amino)-acetic acid methyl ester]	2.3	0.363
COC(=O)CNC(=O)c1ccc2c(c1)nc(C(CCCCN)NC(=O)CCS)n2C1CC1 (stereo not drawn) [Example 48, ({2-[5-Amino-1-(3-mercapto-propionylamino)-pentyl]-1-cyclopropyl-1H-benzoimidazole-5-carbonyl}-amino)-acetic acid methyl ester]	3.6	2
COC(=O)CNC(=O)c1ccc2c(c1)nc(C(Cc1ccc(O)cc1)NC(=O)CCC(=O)O)n2CC1CCCCC1 (stereo not drawn) [Example 26, N-[1-[1-Cyclohexylmethyl-5-(methoxycarbonylmethyl-carbamoyl)-1H-benzoimidazol-2-yl]-2-(4-hydroxyphenyl)-ethyl]-succinamic acid]	35.2	25
CCCCn1c(C(Cc2cccc3ccccc23)NC(=O)CCC(=O)O)nc2cc(C(=O)NCC(=O)OC)ccc21 (stereo not drawn) [Example 18]	2.7	0.074
COC(=O)CNC(=O)c1ccc2c(c1)nc(C(Cc1ccc(O)cc1)NC(=O)CCS)n2CC1CCCCC1 (stereo not drawn) [Example 21, ({1-Cyclohexylmethyl-2-[2-(4-hydroxy-phenyl)-1-(3-mercapto-propionylamino)-ethyl]-1H-benzoimidazole-5-carbonyl}-amino)-acetic acid methyl ester]	> 200	> 200
COC(=O)CNC(=O)c1ccc2c(c1)nc(C(Cc1ccc(O)cc1)NC(=O)CCC(=O)O)n2C1CC1 (stereo not drawn) [Example 25, N-[1-[1-Cyclopropyl-5-(methoxycarbonylmethyl-carbamoyl)-1H-benzoimidazol-2-yl]-2-(4-hydroxyphenyl)-ethyl]-succinamic acid]	12.8	28.3
COC(=O)CNC(=O)c1ccc2c(c1)nc(C(CCCCN)NC(=O)CCS)n2CC1CCCCC1 (stereo not drawn) [Example 19, ({2-[5-Amino-1-(3-mercapto-propionylamino)-pentyl]-1-cyclohexylmethyl-1H-benzoimidazole-5-carbonyl}-amino)-acetic acid methyl ester]	38.1	27.1
COC(=O)CNC(=O)c1ccc2c(c1)nc(C(Cc1ccccc1)NC(=O)CCC(=O)NO)n2CCN (stereo not drawn) [Example 56, ({1-(2-Amino-ethyl)-2-[1-(3-hydroxycarbamoyl-propionylamino)-2-phenyl-ethyl]-1H-benzoimidazole-5-carbonyl}-amino)-acetic acid methyl ester]	2	1.6
CCC(NC(=O)CCC(=O)O)c1nc2cc(C(=O)NCC(=O)OC)ccc2n1C1CC1 (stereo not drawn) [Example 10, N-{1-[1-Cyclopropyl-5-(methoxycarbonylmethyl-carbamoyl)-1H-benzoimidazol-2-yl]-propyl}-succinamic acid]	5.6	0.023
CCC(NC(=O)CCC(=O)O)c1nc2cc(C(=O)NCC(=O)OC)ccc2n1Cc1ccco1 (stereo not drawn) [Example 11, N-{1-[1-Furan-2-ylmethyl-5-(methoxycarbonylmethyl-carbamoyl)-1H-benzoimidazol-2-yl]-propyl}-succinamic acid]	2.8	1.4
COC(=O)CNC(=O)c1ccc2c(c1)nc(C(Cc1ccccc1)NC(=O)CCC(=O)O)n2Cc1ccco1 (stereo not drawn) [Example 5, N-{1-[1-Furan-2-ylmethyl-5-(methoxycarbonylmethyl-carbamoyl)-1H-benzoimidazol-2-yl]-2-phenyl-ethyl}-succinamic acid]	12.9	1.6
COC(=O)CNC(=O)c1ccc2c(c1)nc(C(Cc1ccccc1)NC(=O)CCC(=O)O)n2Cc1ccc(Cl)cc1 (stereo not drawn) [Example 6, N-{1-[1-(4-Chloro-benzyl)-5-(methoxycarbonylmethyl-carbamoyl)-1H-benzoimidazol-2-yl]-2-phenyl-ethyl}-succinamic acid]	1.3	0.093
COC(=O)CNC(=O)c1ccc2c(c1)nc(C(CC(C)C)NC(=O)CCC(=O)O)n2Cc1ccccc1 (stereo not drawn) [Example 15, N-{1-[1-Benzyl-5-(methoxycarbonylmethyl-carbamoyl)-1H-benzoimidazol-2-yl]-3-methyl-butyl}-succinamic acid]	3.3	4
CCC(NC(=O)CCC(=O)NO)c1nc2cc(C(=O)NCC(=O)OC)ccc2n1Cc1ccccc1 (stereo not drawn) [Example 32, ({1-Benzyl-2-[1-(3-hydroxycarbamoyl-propionylamino)-propyl]-1H-benzoimidazole-5-carbonyl}-amino)-acetic acid methyl ester]	0.045	0.067
COC(=O)CNC(=O)c1ccc2c(c1)nc(C(CCc1ccccc1)NC(=O)CCC(=O)O)n2Cc1ccccc1Cl (stereo not drawn) [Example 9, N-{1-[1-(2-Chloro-benzyl)-5-(methoxycarbonylmethyl-carbamoyl)-1H-benzoimidazol-2-yl]-3-phenyl-propyl}-succinamic acid]	27.8	18
CCC(NC(=O)CCS)c1nc2cc(C(=O)NCC(=O)OC)ccc2n1C1CC1 (stereo not drawn) [Example 1, ({1-Cyclopropyl-2-[1-(3-mercapto-propionylamino)-propyl]-1H-benzoimidazole-5-carbonyl}-amino)-acetic acid methyl ester]	65	45.4
CCCCn1c(C(CC(C)C)NC(=O)CCC(=O)O)nc2cc(C(=O)NCC(=O)OC)ccc21 (stereo not drawn) [Example 14, N-{1-[1-Butyl-5-(methoxycarbonylmethyl-carbamoyl)-1H-benzoimidazol-2-yl]-3-methyl-butyl}-succinamic acid]	7.3	2.6
CCC(NC(=O)CCC(=O)NO)c1nc2cc(C(=O)NCC(=O)OC)ccc2n1C1CC1 (stereo not drawn) [Example 29, ({1-Cyclopropyl-2-[1-(3-hydroxycarbamoyl-propionylamino)-propyl]-1H-benzoimidazole-5-carbonyl}-amino)-acetic acid methyl ester]	0.079	0.105
COC(=O)CNC(=O)c1ccc2c(c1)nc(C(CCc1ccccc1)NC(=O)CCC(=O)O)n2CC1CCCCC1 (stereo not drawn) [Example 8, N-{1-[1-Cyclohexylmethyl-5-(methoxycarbonylmethyl-carbamoyl)-1H-benzoimidazol-2-yl]-3-phenyl-propyl}-succinamic acid]	29.8	15.1
CCCCn1c(C(Cc2ccccc2)NC(=O)CCC(=O)O)nc2cc(C(=O)NCC(=O)OC)ccc21 (stereo not drawn) [Example 4, N-{1-[1-Butyl-5-(methoxycarbonylmethyl-carbamoyl)-1H-benzoimidazol-2-yl]-2-phenyl-ethyl}-succinamic acid]	2.8	1
COC(=O)CNC(=O)c1ccc2c(c1)nc(C(CCCCN)NC(=O)CCC(=O)O)n2CC1CCCCC1 (stereo not drawn) [Example 24, N-{5-Amino-1-[1-cyclohexylmethyl-5-(methoxycarbonylmethyl-carbamoyl)-1H-benzoimidazol-2-yl]-pentyl}-succinamic acid]	13.1	1.4
